# Like-named read-outs stand apart in the source and are kept apart here.
# Columns and labels:
# [1] = oral pharmacokinetics (plasma, brain, CSF); assay type: in vivo; settings: Sprague Dawley rats, per os 10 mg/kg; for Tmax: normal saline (first four compounds: 5% NMP, 5% Solutol HS, 90% normal saline)
# Protocol: Plasma, brain, and CSF samples were analyzed at various time points over a 24 hour period.
# NMDAR2A = target: T1, NMDAR2A (Homo sapiens, UniProt Q12879); assay: [3H]MK-801 binding in NMDAR2A expressing HEK cell membranes; assay type: biochemical; design: key to B: log EC50: 0=−; ≥1×10^−9 M (e.g., −8)=+; <1×10^−9 M (e.g., −10)=++; settings: 50 μM glutamate; for EC50: read-out: B: log EC50 (converted)
# T1 construct: expressed in transfected cells; host or cells: HEK cells (membrane extract)
# Protocol: (§1) Assays were conducted as described by Moskal et al., “GLYX-13: a monoclonal antibody-derived peptide that acts as an N-methyl-D-aspartate receptor modulator,” Neuropharmacology, 49, 1077-87, 2005. These studies were designed to determine if the test compounds act to facilitate NMDAR activation in NMDAR2A, NMDAR2B, NMDAR2C or NMDAR2D expressing HEK cell membranes as measured by increases in [^3H]MK-801 binding.
# (§2) In the assay, 300 μg of NMDAR expressing HEK cell membrane extract protein was preincubated for 15 minutes at 25° C. in the presence of saturating concentrations of glutamate (50 μM) and varying concentrations of test compound (1×10^−15M−1×10^−7M), or 1 mM glycine. Following the addition of 0.3 μCi of [^3H]MK-801 (22.5 Ci/mmol), reactions were again incubated for 15 minutes at 25° C. (nonequilibrium conditions). Bound and free [^3H]MK-801 were separated via rapid filtration using a Brandel apparatus.
# (§3) In analyzing the data, the DPM (disintegrations per minute) of [^3H]MK-801 remaining on the filter were measured for each concentration of test compound or for 1 mM glycine. The DPM values for each concentration of a ligand (N=2) were averaged. The baseline value was determined from the best fit curve of the DPM values modeled using the GraphPad program and the log(agonist) vs. response (three parameters) algorithm was then subtracted from all points in the dataset. The % maximal [^3H]MK-801 binding was then calculated relative to that of 1 mM glycine: all baseline subtracted DPM values were divided by the average value for 1 mM glycine. The EC50 and % maximal activity were then obtained from the best fit curve of the % maximal [^3H]MK-801 binding data modelled using the GraphPad program and the log(agonist) vs. response (three parameters) algorithm.
# (§4) The tables below summarize the results for the wild type […] NMDAR2A, NMDAR2B, NMDAR2C, and NMDAR2D, and whether the compound is not an agonist (−), is an agonist (+), or is a strong agonist (++), where column A is based on the % maximal [^3H]MK-801 binding relative to 1 mM glycine (−=0; <100%=+; and >100%=++); and column B is based on log EC50 values (0=−; ≥1×10^−9 M (e.g., −8)=+; and <1×10^−9 M (e.g., −10)=++).
# NMDAR2C = target: T2, NMDAR2C (Homo sapiens, UniProt Q14957); assay: [3H]MK-801 binding in NMDAR2C expressing HEK cell membranes; assay type: biochemical; settings: second part of table (r25-r35); c2, taken as NMDAR2C; read-out: B: log EC50 (converted)
# T2 construct: expressed in transfected cells; host or cells: HEK cells (membrane extract)
# Protocol: as §1, §2
# as §3, with “algorithm. […]” for “algorithm.”
# IV pharmacokinetics = assay type: in vivo; settings: Sprague Dawley rats; for C0: normal saline (first four compounds: 5% NMP, 5% Solutol HS, 90% normal saline); for Vd: read-out: Vss
# Protocol: Sprague Dawley rats were dosed intravenously using a normal saline formulation containing 2 mg/kg of the compounds identified in the below table (except for the first four compounds that were delivered in 5% NMP, 5% Solutol® HS and 90% normal saline formulation). The table below summarizes the results of the IV pharmacokinetics.
# Sprague Dawley rats = assay: Porsolt forced swim test; assay type: in vivo; settings: 0.1 mg/kg; for % reduction in float time: relative to vehicle group
# Protocol: A non-clinical in vivo pharmacology study (Porsolt assay) was performed to measure antidepressant-like effects. A negative control (0.5% sodium carboxymethyl cellulose in 0.9% sterile saline vehicle) and a positive control (fluoxetine) are shown for comparison against test compound. The study allowed for the evaluation of the effects of each compound on the Porsolt forced swim test as assessed by the rats' response (reduced floating time) during a 5-minute swimming test.
# Male 2-3 month old Sprague Dawley rats were used (Harlan, Indianapolis, Ind.). Rats were housed in Lucite cages with aspen wood chip bedding, maintained on a 12:12 light:dark cycle (lights on at 5 AM), and given ad libitum access to Purina lab chow (USA) and tap water throughout the study.
# The Porsolt forced swim test adapted for use in rats was performed as described by Burgdorf et al., (The long-lasting antidepressant effects of rapastinel (GLYX-13) are associated with a metaplasticity process in the medial prefrontal cortex and hippocampus. Neuroscience 308:202-211, 2015). Animals were placed in a 46 cm tall×20 cm in diameter clear glass tube filled to 30 cm with tap water (23±1° C.) for 15 min on the first day (habituation) and 5 min on the subsequent test day. Positive control fluoxetine was dosed 3 times (24 h, 5 h and 1 h) prior to testing. Animals were tested 1 h or 24 h post-dosing with the test compounds or vehicle. Animals received a 15 min habituation session 1 day before the 5 min test. A subset of compounds tested at 1 h post-dosing were retested at 1 wk post-dosing in the same sets of animals. Water was changed after every other animal. Animals were videotaped, and floating time as defined as the minimal amount of effort required to keep the animals head above water was scored offline by a blinded experimenter with high inter-rater reliability (Pearson's r>0.9).
# Each compound tested at dose level shown. Significance vs. vehicle group for each experiment is marked. […] A compound marked “No” was not statistically significant from vehicle. Data was averaged for test compound and vehicle groups (N approximately 8 per group) and the percent reduction in floating for group treated with test compound relative to group treated with vehicle is shown.
# NMDAR2B = target: T3, NMDAR2B (Homo sapiens, UniProt Q13224); assay: [3H]MK-801 binding in NMDAR2B expressing HEK cell membranes; assay type: biochemical; settings: 50 μM glutamate; for Emax: read-out: A: % maximal [3H]MK-801 binding relative to 1 mM glycine; for EC50: read-out: B: log EC50 (converted)
# T3 construct: expressed in transfected cells; host or cells: HEK cells (membrane extract)
# Protocol: as §1, §2, §3, §4
# NMDAR2D [2] = target: T4, NMDAR2D (Homo sapiens, UniProt O15399+Q05586); assay: [3H]MK-801 binding in NMDAR2D expressing HEK cell membranes; assay type: biochemical; design: key to B: log EC50: 0=−; ≥1×10^−9 M (e.g., −8)=+; <1×10^−9 M (e.g., −10)=++; settings: for EC50: second part of table (r25-r35), c4, taken as NMDAR2D, read-out: B: log EC50 (converted); for Emax: second part of table, c3, taken as NMDAR2D, read-out: A: % maximal [3H]MK-801 binding relative to 1 mM glycine
# T4 construct: expressed in transfected cells; host or cells: HEK cells (membrane extract)
# Protocol: as §1, §2, §3, §4
# rats = assay: positive emotional learning (PEL) test, 50-kHz ultrasonic vocalizations; assay type: in vivo; settings: rat, PO, one hour after administration
# Protocol: Experiments were conducted as described in Burgdorf et al., “The effect of selective breeding for differential rates of 50-kHz ultrasonic vocalizations on emotional behavior in rats,” Devel. Psychobiol., 51:34-46 (2009). Rat 50-kHz ultrasonic vocalization (hedonic USVs) is a validated model for the study of positive affective state and is best elicited by rough-and-tumble play.
# The PEL assay measures the acquisition of positive (hedonic) 50-kHz ultrasonic vocalizations (USVs) to a social stimulus, heterospecific rough and tumble play stimulation. Heterospecific rough-and-tumble play stimulation was administered by the experimenter's right hand. One hour after administration of test compound or vehicle negative control (0.5% sodium carboxymethyl cellulose in 0.9% sterile saline vehicle), animals received 3 min of heterospecific rough-and-tumble play that consisted of alternating 15 sec blocks of heterospecific play and 15 sec of no-stimulation. High frequency ultrasonic vocalizations (USVs) were recorded and analyzed by sonogram with Avasoft SASlab Pro (Germany) as previously described by Burgdorf et al., “Positive emotional learning is regulated in the medial prefrontal cortex by GluN2B-containing NMDA receptors,” Neuroscience, 192:515-523 (2011). Frequency modulated 50-kHz USVs that occurred during each of the no-stimulation periods were quantified to measure PEL. Animals were not habituated to play stimulation before testing. Positive emotional learning was measured during the conditioned stimulus (CS) trials preceding the tickle unconditioned stimulus (UCS) trials. Animals received 15 second trials consisting of 6 CS and 6 UCS trials each (3 min total).
# The table below summarizes the findings. As each experiment includes its own vehicle group, an example (typical) vehicle score is shown. Max effect (mean number of 50 kHz USVs per 15 seconds) is reported as ^: <6.0; *: 6.0-7.6; **: 7.7-10; ***:10.1-20
# NMDAR2D [3] = target: T5, NMDAR2D (Homo sapiens, UniProt O15399); assay: [3H]MK-801 binding in NMDAR2D expressing HEK cell membranes; assay type: biochemical; design: key to B: log EC50: 0=−; ≥1×10^−9 M (e.g., −8)=+; <1×10^−9 M (e.g., −10)=++; settings: for A: % maximal [3H]MK-801 binding relative to 1 mM glycine: second part of table (r25-r35), c3, taken as NMDAR2D
# T5 construct: expressed in transfected cells; host or cells: HEK cells (membrane extract)
# Protocol: as §1, §2, §3, §4
# [4] = Sprague Dawley, rat, plasma, po, 10 mg/kg
# [5] = Sprague Dawley, rat, plasma, po, 10 mg/kg, plasma, read-out: Cmax
# [6] = rat, plasma, po, read-out: Tmax
# [7] = Sprague Dawley, rat, in vivo, iv, 2 mg/kg
# [8] = Sprague Dawley, rat, in vivo, iv, 2 mg/kg, read-out: C0
# T3 sequence (Q13224 27-1484, species assumed, other chains not shown): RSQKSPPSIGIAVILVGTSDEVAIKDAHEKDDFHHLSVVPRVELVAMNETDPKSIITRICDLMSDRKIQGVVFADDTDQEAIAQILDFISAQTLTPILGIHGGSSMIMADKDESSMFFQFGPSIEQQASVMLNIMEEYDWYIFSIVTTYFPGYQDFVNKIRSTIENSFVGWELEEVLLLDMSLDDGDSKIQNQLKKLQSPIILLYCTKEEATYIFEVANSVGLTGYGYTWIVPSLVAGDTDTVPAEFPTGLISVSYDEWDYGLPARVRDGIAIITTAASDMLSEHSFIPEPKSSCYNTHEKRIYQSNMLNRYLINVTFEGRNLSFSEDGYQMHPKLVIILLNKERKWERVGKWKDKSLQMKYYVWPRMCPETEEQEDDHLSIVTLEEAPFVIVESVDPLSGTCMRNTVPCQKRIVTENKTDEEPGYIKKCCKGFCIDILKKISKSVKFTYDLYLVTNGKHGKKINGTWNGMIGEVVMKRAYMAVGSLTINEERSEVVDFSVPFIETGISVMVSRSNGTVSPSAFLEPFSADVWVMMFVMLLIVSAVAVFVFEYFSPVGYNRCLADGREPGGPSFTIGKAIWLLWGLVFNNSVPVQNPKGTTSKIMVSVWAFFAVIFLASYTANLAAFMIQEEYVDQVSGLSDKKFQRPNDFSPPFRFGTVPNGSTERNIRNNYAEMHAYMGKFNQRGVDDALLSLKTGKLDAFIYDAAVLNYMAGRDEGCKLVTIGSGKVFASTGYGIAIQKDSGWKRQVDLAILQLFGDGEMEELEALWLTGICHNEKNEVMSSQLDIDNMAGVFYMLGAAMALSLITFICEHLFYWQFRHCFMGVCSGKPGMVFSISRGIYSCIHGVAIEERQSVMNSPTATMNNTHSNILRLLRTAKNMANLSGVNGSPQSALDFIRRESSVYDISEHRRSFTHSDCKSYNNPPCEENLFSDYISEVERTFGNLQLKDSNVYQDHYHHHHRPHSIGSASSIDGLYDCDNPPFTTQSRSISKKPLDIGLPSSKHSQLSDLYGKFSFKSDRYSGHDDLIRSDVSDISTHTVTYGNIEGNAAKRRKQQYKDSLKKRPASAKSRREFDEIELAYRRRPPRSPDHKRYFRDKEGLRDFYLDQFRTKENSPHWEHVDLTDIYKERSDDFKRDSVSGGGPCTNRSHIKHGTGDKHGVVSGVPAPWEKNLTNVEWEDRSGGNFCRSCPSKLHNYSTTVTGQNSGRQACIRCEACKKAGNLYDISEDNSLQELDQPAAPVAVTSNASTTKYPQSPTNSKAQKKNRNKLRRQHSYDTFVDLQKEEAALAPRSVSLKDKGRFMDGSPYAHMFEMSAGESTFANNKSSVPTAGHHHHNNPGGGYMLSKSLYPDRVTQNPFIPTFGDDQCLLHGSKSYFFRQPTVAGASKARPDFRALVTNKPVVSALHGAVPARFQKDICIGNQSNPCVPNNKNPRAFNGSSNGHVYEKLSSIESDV
# T5 sequence (O15399 28-1336, species assumed, other chains not shown): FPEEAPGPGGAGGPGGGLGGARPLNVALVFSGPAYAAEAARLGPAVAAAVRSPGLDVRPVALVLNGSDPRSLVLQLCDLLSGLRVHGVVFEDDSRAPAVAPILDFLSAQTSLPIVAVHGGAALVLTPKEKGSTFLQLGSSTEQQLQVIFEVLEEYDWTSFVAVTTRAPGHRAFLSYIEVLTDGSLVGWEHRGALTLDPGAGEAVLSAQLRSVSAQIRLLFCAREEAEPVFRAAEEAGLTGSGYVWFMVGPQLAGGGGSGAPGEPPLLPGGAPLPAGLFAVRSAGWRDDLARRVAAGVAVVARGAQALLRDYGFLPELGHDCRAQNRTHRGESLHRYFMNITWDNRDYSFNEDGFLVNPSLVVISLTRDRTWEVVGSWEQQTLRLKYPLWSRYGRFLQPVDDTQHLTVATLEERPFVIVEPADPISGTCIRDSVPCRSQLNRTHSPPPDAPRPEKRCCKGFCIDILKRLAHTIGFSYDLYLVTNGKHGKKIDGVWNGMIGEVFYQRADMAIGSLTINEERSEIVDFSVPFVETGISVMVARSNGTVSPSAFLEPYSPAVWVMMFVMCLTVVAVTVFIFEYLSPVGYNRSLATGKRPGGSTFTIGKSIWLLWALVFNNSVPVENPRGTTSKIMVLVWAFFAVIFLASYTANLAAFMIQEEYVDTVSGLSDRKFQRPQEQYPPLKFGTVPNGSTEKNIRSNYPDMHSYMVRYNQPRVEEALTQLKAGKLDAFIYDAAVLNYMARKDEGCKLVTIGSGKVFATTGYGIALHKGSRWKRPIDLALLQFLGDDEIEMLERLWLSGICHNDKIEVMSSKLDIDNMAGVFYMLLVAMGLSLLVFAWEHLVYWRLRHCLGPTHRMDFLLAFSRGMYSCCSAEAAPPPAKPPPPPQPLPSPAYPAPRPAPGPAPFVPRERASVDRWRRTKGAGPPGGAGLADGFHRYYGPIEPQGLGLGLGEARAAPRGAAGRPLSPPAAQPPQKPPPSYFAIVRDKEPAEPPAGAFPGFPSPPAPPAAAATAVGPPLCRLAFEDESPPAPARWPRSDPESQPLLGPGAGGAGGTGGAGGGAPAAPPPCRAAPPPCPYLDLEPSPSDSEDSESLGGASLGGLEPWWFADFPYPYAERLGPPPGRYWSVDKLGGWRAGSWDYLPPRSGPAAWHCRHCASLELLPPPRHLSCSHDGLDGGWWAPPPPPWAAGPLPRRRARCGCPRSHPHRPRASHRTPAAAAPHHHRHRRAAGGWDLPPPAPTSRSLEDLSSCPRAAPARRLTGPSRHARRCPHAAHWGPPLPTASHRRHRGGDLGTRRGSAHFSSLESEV
# T4 sequence (O15399 28-1336, species assumed, other chains not shown): as above
# T1 sequence (Q12879 23-1464, species assumed, other chains not shown): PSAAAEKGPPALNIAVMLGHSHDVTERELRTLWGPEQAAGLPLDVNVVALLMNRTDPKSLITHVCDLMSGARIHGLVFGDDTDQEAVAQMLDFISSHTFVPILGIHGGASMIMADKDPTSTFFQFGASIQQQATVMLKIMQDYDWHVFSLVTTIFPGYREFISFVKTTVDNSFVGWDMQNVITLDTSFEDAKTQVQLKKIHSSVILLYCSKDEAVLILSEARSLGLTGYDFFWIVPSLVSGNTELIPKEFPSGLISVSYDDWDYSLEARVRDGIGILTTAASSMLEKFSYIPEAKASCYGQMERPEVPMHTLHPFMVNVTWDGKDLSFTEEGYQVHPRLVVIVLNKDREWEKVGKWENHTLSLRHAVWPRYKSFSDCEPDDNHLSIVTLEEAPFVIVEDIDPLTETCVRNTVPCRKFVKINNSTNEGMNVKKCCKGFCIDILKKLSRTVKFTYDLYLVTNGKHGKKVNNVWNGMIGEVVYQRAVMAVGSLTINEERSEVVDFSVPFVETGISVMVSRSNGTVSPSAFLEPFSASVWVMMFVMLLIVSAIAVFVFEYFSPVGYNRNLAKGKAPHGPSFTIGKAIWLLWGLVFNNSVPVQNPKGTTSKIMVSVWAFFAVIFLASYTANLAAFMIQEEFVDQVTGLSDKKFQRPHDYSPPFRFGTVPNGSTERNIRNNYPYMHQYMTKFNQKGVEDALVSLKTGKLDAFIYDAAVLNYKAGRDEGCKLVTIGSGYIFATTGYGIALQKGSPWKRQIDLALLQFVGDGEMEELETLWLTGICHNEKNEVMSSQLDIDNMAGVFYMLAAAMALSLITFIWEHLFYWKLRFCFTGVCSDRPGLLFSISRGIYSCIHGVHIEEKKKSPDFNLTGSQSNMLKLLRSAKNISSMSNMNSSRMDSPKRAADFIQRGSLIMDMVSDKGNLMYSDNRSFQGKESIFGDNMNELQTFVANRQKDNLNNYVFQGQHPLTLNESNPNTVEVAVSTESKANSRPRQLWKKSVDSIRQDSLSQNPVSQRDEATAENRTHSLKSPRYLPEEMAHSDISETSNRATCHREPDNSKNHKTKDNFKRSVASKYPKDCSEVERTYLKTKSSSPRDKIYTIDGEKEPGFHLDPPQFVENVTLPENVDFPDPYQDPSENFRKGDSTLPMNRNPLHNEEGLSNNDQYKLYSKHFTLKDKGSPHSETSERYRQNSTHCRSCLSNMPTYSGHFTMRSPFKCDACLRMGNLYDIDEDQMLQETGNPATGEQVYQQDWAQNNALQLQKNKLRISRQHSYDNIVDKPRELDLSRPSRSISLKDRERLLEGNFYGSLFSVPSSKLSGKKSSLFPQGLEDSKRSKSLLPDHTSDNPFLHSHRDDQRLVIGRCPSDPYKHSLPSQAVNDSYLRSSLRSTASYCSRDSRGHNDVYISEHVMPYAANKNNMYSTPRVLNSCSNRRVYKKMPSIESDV
CSF Cmax [1],Brain Cmax [1],"AUC(0-t) [1, 4]","bioavailability [1, 4]","Cmax [1, 5]","Tmax [1, 6]",A: % maximal [3H]MK-801 binding relative to 1 mM glycine (NMDAR2A),EC50 (NMDAR2A),EC50 (NMDAR2C),AUC(0-t) (IV pharmacokinetics; [7]),clearance (IV pharmacokinetics; [7]),half-life (IV pharmacokinetics; [7]),C0 (IV pharmacokinetics; [8]),Vd (IV pharmacokinetics; [7]),Emax (NMDAR2B),EC50 (NMDAR2B),EC50 (NMDAR2D [2]),Emax (NMDAR2D [2]),Vss (IV pharmacokinetics; intravenous 2 mg/kg),SMILES,Max Effect (mean number of 50 kHz USVs per 15 seconds) (rats; dose .001-1 mg/kg),other results
3157 ng/mL,2209 ng/mL,29500 ng·h/mL,84%,10800 ng/mL,30 min,+ (<100%=+),< 1 nM,< 1 nM,7010 ng·h/mL,4.74 mL/min/kg,243 min,3040 ng/mL,0.69 L/kg,> 100%,≥ 1 nM,< 1 nM,< 100%,,CC(C)C(=O)N1CCCC12CCNC2=O (stereo not shown) [RZ-405],,"Significance vs. vehicle (Sprague Dawley rats; 1 h post-dose, floating time in 5 min test): Yes (statistically significant (p<=0.05) from vehicle at dose level shown); % reduction in float time (Sprague Dawley rats; 1 h post-dose): 78.9%; Significance vs. vehicle (Sprague Dawley rats; 24 h post-dose): Yes (statistically significant (p<=0.05) from vehicle at dose level shown); % reduction in float time (Sprague Dawley rats; 24 h post-dose): 42.7%"
86.1 ng/mL,22 ng/mL,273 ng·h/mL,40%,495 ng/mL,15 min,− (−=0),,,136 ng·h/mL,,16.2 min,,,< 100%,< 1 nM,< 1 nM,,4.12 L/kg,"CC(C)(C)OC(=O)N1CCCC2(CCNC2=O)C1 (single isomer, unassigned) [RE-1, tert-butyl 1-oxo-2,7-diazaspiro[4.5]decane-7-carboxylate]",*** (***:10.1-20),B: log EC50 (NMDAR2A): −; C0 (IV pharmacokinetics; intravenous 2 mg/kg): 589.9 ng/mL; A: % maximal [3H]MK-801 binding relative to 1 mM glycine (NMDAR2D [3]): + (<100%=+)
1415 ng/mL,2763 ng/mL,5010 ng·h/mL,75%,4310 ng/mL,15 min,+ (<100%=+),< 1 nM,< 1 nM,1330 ng·h/mL,24.9 mL/min/kg,29.4 min,2010 ng/mL,0.91 L/kg,,< 1 nM,< 1 nM,< 100%,,"CC(C)(C)OC(=O)N1CCCC12CCNC2=O (single isomer, unassigned) [RM-1, tert-butyl 6-oxo-1,7-diazaspiro[4.4]nonane-1-carboxylate]",*** (***:10.1-20),A: % maximal [3H]MK-801 binding relative to 1 mM glycine (NMDAR2B): ++ (>100%=++)
102.5 ng/mL,203.6 ng/mL,,,,,+ (<100%=+),≥ 1 nM,< 1 nM,,,,,,,< 1 nM,,,1.69 L/kg,"CC(C)(C)OC(=O)N1CCCC2(CCNC2=O)C1 (single isomer, unassigned) [RA-1, tert-butyl 1-oxo-2,7-diazaspiro[4.5]decane-7-carboxylate]",,"% F [1]: 28%; AUClast [1]: 324.2 ng·h/mL; Tmax [1]: 15 min; Cmax ([1]; plasma): 592 ng/mL; Max Effect (mean number of 50 kHz USVs per 15 seconds) (rats; dose 0.1 mg/kg): *** (***:10.1-20); AUClast (IV pharmacokinetics; intravenous 2 mg/kg): 234.08 ng·h/mL; T1/2 (IV pharmacokinetics; intravenous 2 mg/kg): 11.4 min; C0 (IV pharmacokinetics; intravenous 2 mg/kg): 1247.08 ng/mL; A: % maximal [3H]MK-801 binding relative to 1 mM glycine (NMDAR2B): + (<100%=+); A: % maximal [3H]MK-801 binding relative to 1 mM glycine (NMDAR2D [3]): − (−=0); B: log EC50 (NMDAR2D [3]; second part of table, c4, taken as NMDAR2D): −"

# Reference: patent US11530223B2, “Spiro-lactam NMDA receptor modulators and uses thereof” (Aptinyx Inc., priority 2016, dated 2022)
